Measured values taken from PubChem BioAssay AID1845213 (Molecular Pharmacology Branch, DTP, NCI, 2023).

Tested on: NCI-H841 complex tumor spheroid viability
Test: Anticancer human tumor NCI-H841 cell line growth inhibition;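 note: spheroids exposed to compounds for 7 days before readout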;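 for viability, T/C: 100% = DMSO vehicle control wells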
Details: for IC50: curve of first compound; for viability, T/C: stronger effect = lower value
In short: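 Complex tumor spheroids combined malignant cells with endothelial cells and mesenchymal stem cells. DNA-damaging drugs and DNA repair inhibitors were tested alone and in combination, at half-log dilutions down from clinical Cmax (top 10 microM if Cmax unknown), 0.25% DMSO final.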

[1] = second compound 30 pM, first compound 0.0316 µM
[2] = second compound 30 pM, first compound 0.1 µM
[3] = second compound 30 pM, first compound 0.316 µM
[4] = second compound 30 pM, first compound 1 µM
[5] = second compound 30 pM, first compound 3.16 µM
[6] = second compound 30 pM, first compound 10 µM
[7] = second compound 94.9 pM, first compound 0.0316 µM
[8] = second compound 94.9 pM, first compound 0.1 µM
[9] = second compound 94.9 pM, first compound 0.316 µM
[10] = second compound 94.9 pM, first compound 1 µM
[11] = second compound 94.9 pM, first compound 3.16 µM
[12] = second compound 94.9 pM, first compound 10 µM
[13] = second compound 0.0003 µM, first compound 0.0316 µM
[14] = second compound 0.0003 µM, first compound 0.1 µM
[15] = second compound 0.0003 µM, first compound 0.316 µM
[16] = second compound 0.0003 µM, first compound 1 µM
[17] = second compound 0.0003 µM, first compound 3.16 µM
[18] = second compound 0.0003 µM, first compound 10 µM
[19] = second compound 0.000949 µM, first compound 0.0316 µM
[20] = second compound 0.000949 µM, first compound 0.1 µM
[21] = second compound 0.000949 µM, first compound 0.316 µM
[22] = second compound 0.000949 µM, first compound 1 µM
[23] = second compound 0.000949 µM, first compound 3.16 µM
[24] = second compound 0.000949 µM, first compound 10 µM
[25] = second compound 0.003 µM, first compound 0.0316 µM
[26] = second compound 0.003 µM, first compound 0.1 µM
[27] = second compound 0.003 µM, first compound 0.316 µM
[28] = second compound 0.003 µM, first compound 1 µM
[29] = second compound 0.003 µM, first compound 3.16 µM
[30] = second compound 0.003 µM, first compound 10 µM

Row | Compound | IC50 (second compound 30 pM) | IC50 (second compound 94.9 pM) | IC50 (second compound 0.0003 µM) | IC50 (second compound 0.000949 µM) | IC50 (second compound 0.003 µM) | viability, T/C [1] | viability, T/C [2] | viability, T/C [3] | viability, T/C [4] | viability, T/C [5] | viability, T/C [6] | viability, T/C [7] | viability, T/C [8] | viability, T/C [9] | viability, T/C [10] | viability, T/C [11] | viability, T/C [12] | viability, T/C [13] | viability, T/C [14] | viability, T/C [15] | other results
1 | CC1COCCN1c1cc(-c2ccnn2C)c2ccnc(-c3ccn[nH]3)c2n1 (stereo not given) + COc1cc2c(cc1O)CCNC21CSC2c3c(OC(C)=O)c(C)c4c(c3C(COC1=O)N1C(O)C3Cc5cc(C)c(OC)c(O)c5C(C21)N3C)OCO4 | < 31.6 nM | < 31.6 nM | < 31.6 nM | < 31.6 nM | < 31.6 nM | 26.5% | 3.12% | 1.47% | 0.86% | 1.08% | 1.34% | 4.85% | 0.92% | 0.73% | 0.72% | 0.85% | 1.34% | 0.85% | 0.44% | 0.46% | viability, T/C [16]: 0.56%; viability, T/C [17]: 0.59%; viability, T/C [18]: 0.82%; viability, T/C [19]: 0.34%; viability, T/C [20]: 0.28%; viability, T/C [21]: 0.24%; viability, T/C [22]: 0.15%; viability, T/C [23]: 0.06%; viability, T/C [24]: 0.21%; viability, T/C [25]: 0.12%; viability, T/C [26]: 0.12%; viability, T/C [27]: 0.11%; viability, T/C [28]: 0.1%; viability, T/C [29]: 0.11%; viability, T/C [30]: 0.17%
2 | COc1cc(C)[nH]c(=O)c1CN1CCc2c(Cl)cc(C(OC)C3COC3)c(Cl)c2C1=O (stereo not given) + COc1cc2c(cc1O)CCNC21CSC2c3c(OC(C)=O)c(C)c4c(c3C(COC1=O)N1C(O)C3Cc5cc(C)c(OC)c(O)c5C(C21)N3C)OCO4 | 9900 nM | 2520 nM | < 31.6 nM | < 31.6 nM | < 31.6 nM | 85.9% | 76.3% | 71.5% | 67.3% | 58.8% | 48.7% | 84.6% | 67.9% | 70.9% | 56.1% | 48.8% | 39.1% | 32.9% | 27.3% | 14.5% | viability, T/C [16]: 13.7%; viability, T/C [17]: 10.3%; viability, T/C [18]: 5.83%; viability, T/C [19]: 3.08%; viability, T/C [20]: 2.58%; viability, T/C [21]: 2.24%; viability, T/C [22]: 1.23%; viability, T/C [23]: 1.24%; viability, T/C [24]: 0.9%; viability, T/C [25]: 0.09%; viability, T/C [26]: 0.09%; viability, T/C [27]: 0.07%; viability, T/C [28]: 0.1%; viability, T/C [29]: 0.09%; viability, T/C [30]: 0.17%
3 | COc1ccc([C@@H](O)c2cc(-c3ncnc4cc(N5CCOCC5)ccc34)c(F)cc2Cl)nn1 + COc1cc2c(cc1O)CCNC21CSC2c3c(OC(C)=O)c(C)c4c(c3C(COC1=O)N1C(O)C3Cc5cc(C)c(OC)c(O)c5C(C21)N3C)OCO4 | 2950 nM | 1040 nM | < 31.6 nM | < 31.6 nM | < 31.6 nM | 102% | 99.6% | 96% | 86.7% | 47.5% | 4.01% | 99.4% | 94.5% | 86.4% | 50.3% | 16.4% | 1.62% | 31.4% | 34.4% | 16.9% | viability, T/C [16]: 4.22%; viability, T/C [17]: 0.62%; viability, T/C [18]: 0.12%; viability, T/C [19]: 2.69%; viability, T/C [20]: 2.87%; viability, T/C [21]: 1.76%; viability, T/C [22]: 0.09%; viability, T/C [23]: 0.02%; viability, T/C [24]: 0.14%; viability, T/C [25]: 0.13%; viability, T/C [26]: 0.12%; viability, T/C [27]: 0.14%; viability, T/C [28]: 0.16%; viability, T/C [29]: 0.19%; viability, T/C [30]: 0.27%
4 | Cc1cc(C)c(CNC(=O)c2cc(-c3ccc(CN4CCOCC4)cc3)cc3c2cnn3C2CCCC2)c(=O)[nH]1 + COc1cc2c(cc1O)CCNC21CSC2c3c(OC(C)=O)c(C)c4c(c3C(COC1=O)N1C(O)C3Cc5cc(C)c(OC)c(O)c5C(C21)N3C)OCO4 | > 10000 nM | > 10000 nM | < 31.6 nM | < 31.6 nM | < 31.6 nM | 99.7% | 102% | 104% | 95.4% | 87% | 65% | 99.5% | 99.7% | 97% | 89.5% | 84.7% | 57% | 38.6% | 44% | 46.7% | viability, T/C [16]: 32.2%; viability, T/C [17]: 25.2%; viability, T/C [18]: 7.36%; viability, T/C [19]: 2.45%; viability, T/C [20]: 2.86%; viability, T/C [21]: 3.65%; viability, T/C [22]: 2.33%; viability, T/C [23]: 2.54%; viability, T/C [24]: 1.15%; viability, T/C [25]: 0.26%; viability, T/C [26]: 0.12%; viability, T/C [27]: 0.11%; viability, T/C [28]: 0.11%; viability, T/C [29]: 0.13%; viability, T/C [30]: 0.19%
5 | [2H]c1nc(C)nc([2H])c1-c1cc(NC[C@@H](C)c2cccc3c(C(=O)NC)ccnc23)ncn1 + COc1cc2c(cc1O)CCNC21CSC2c3c(OC(C)=O)c(C)c4c(c3C(COC1=O)N1C(O)C3Cc5cc(C)c(OC)c(O)c5C(C21)N3C)OCO4 | > 10000 nM | > 10000 nM | < 31.6 nM | < 31.6 nM | < 31.6 nM | 98.7% | 101% | 102% | 99.4% | 97.2% | 96.2% | 101% | 102% | 98% | 96.9% | 96.9% | 93% | 40% | 47.3% | 38.3% | viability, T/C [16]: 34.7%; viability, T/C [17]: 39.7%; viability, T/C [18]: 20.1%; viability, T/C [19]: 3.9%; viability, T/C [20]: 2.99%; viability, T/C [21]: 3.31%; viability, T/C [22]: 3.19%; viability, T/C [23]: 3.35%; viability, T/C [24]: 3.46%; viability, T/C [25]: 0.12%; viability, T/C [26]: 0.1%; viability, T/C [27]: 0.1%; viability, T/C [28]: 0.1%; viability, T/C [29]: 0.12%; viability, T/C [30]: 0.17%
